A melting point compilation (Tetko et al.; mined from patent text by program, amines drawn as free bases though some values may be those of a salt)

melting point [°C]	Structure (SMILES)
> 230	COC(=O)C1=C(C)NC(c2cnc(Cl)s2)=NC1c1ccc(F)cc1Cl (configuration not stated)
210 to 212	N=C(NCC1CCCO1)Nc1c([N+](=O)[O-])cnc2ccccc12 (configuration not stated)
102 to 104	Cc1ccc(-c2ccccc2-n2c(C)n[nH]c2=O)cc1
134 to 136	CC(C)Cn1cccc1C(=O)C(C#N)C(=O)Nc1ccccc1 (configuration not stated)
52 to 55	Cc1ncc(OC(=O)C2(C3CCCCC3)CCCCC2)cn1
150 to 151	CCCCOC(=O)c1cc2cccc(O)c2[nH]1
136 to 137	CCOC(=O)C(CC(=O)c1ccc2cc(OC)ccc2c1)C(=O)c1ccccc1 (configuration not stated)
228 to 235	O=c1c(CCl)c[nH]c2c([N+](=O)[O-])cccc12
160 to 162	Clc1ccc(-c2nnc(Br)cc2Br)cc1
173 to 174	CCOC(=O)c1cc(C)sc1NN=c1c(C(=O)OCC)c[nH]c2ccccc12
130 to 135	CCOC(=O)CN=C(c1ccccc1)c1cc(Cl)ccc1N
158 to 159	Cc1noc2cc(F)c(-n3c(=O)cc(C(F)(F)F)n(C)c3=O)cc12
275 to 280	CC(=O)Nc1ccc2c(c1)C(=O)N(c1ccc3c(ccn3C)c1)C2
182 to 184	O=C1Cc2cc(NC(=O)C(=O)N3CCC(Cc4cccc(F)c4)CC3)ccc2N1
249 to 251	CCOC(=O)c1cn2c3c(c(C#N)ccc3c1=O)CCC2C (configuration not stated)
155 to 157	O=c1c2c(Cl)cc(Cl)cc2n(Cc2ccccc2)c(=O)n1Cc1cccc(I)c1
184 to 186	COc1ccc(C)cc1NC(=O)Nc1ccc(N2CCN(Cc3ccccc3)CC2)cc1
258 to 260	Cc1nc(N)c2nc(CO)n(NCc3cccnc3)c2c1C
218	CC(C)(C)OC(=O)N1CCC(OCc2ccccc2)C1CC(=O)Cn1cnc2cccc(C(F)(F)F)c2c1=O (configuration not stated)
77.5 to 77.9	CCCCCCCC(=O)Oc1ccc(-c2ccc(C#N)cc2)cc1
111 to 113	CC(C)OC(=O)c1cc(-n2c(=O)c3c(n(C)c2=O)CCC3)c(F)cc1Cl
102 to 104	CSCCCn1cc(C(=O)NCc2ccc(Cl)cc2)c(=O)c2cc(CN3CCOCC3)ccc21
244 to 245	COc1ccc(-c2nc(Sc3nc(-c4ccc(OC)cc4)c(-c4ccc(OC)cc4)[nH]3)[nH]c2-c2ccc(OC)cc2)cc1

melting point [°C]	Structure (SMILES)
194 to 202	CC1(C2CCC3C4CCC5CC(O)CCC5(C)C4C(OC(=O)CCl)CC32C)OCCO1 (configuration not stated)
47 to 48	CCOC(=O)CC1CCN(C(=O)c2ccccc2)CC1
91 to 93	CC(C)(C)OC(=O)NCCN1CC2CNCC(C1)O2
186	O=C(O)CCCCCCCn1c(-c2cc(I)c(O)c(I)c2)nc(-c2ccccc2)c1-c1ccccc1
102	OC1CSC(Oc2ccccc2-c2ccoc2)C(O)C1O (configuration not stated)
85 to 86	Cc1ccc(-c2[nH]nc(COCCCO)c2-c2ccc(S(N)(=O)=O)cc2)cc1
170 to 172	CCN(C)C(=O)/C=C/CSc1nc(N)cc(Cl)n1
194 to 196	COC(=O)c1nc(-c2ccc(Cl)cc2F)nc(N)c1Cl
127 to 129	CCN(CC)S(=O)(=O)c1ccc(-c2cnc3[nH]c(CCc4cc(OC)ccn4)nc3c2)cc1
273 to 276	C(=C\c1cc(/C=C/c2ccc3cc[nH]c3c2)n[nH]1)/c1ccc(-c2ccccc2)cc1
87 to 90	CCN(CC)CCC1(C#N)c2ccccc2COc2ccccc21 (configuration not stated)
85	CC(=O)CC(C)c1ccc(-c2ccccc2)c(F)c1 (configuration not stated)
134 to 136	C=Cn1cc(C(=O)OCC)c(=O)c2c(C)c(F)c(F)c(F)c21
195 to 196	COc1ccc(Cn2c(C(=O)O)c(-c3ccc4c(c3)OCO4)c3ccccc32)c(OCC(=O)O)c1
196 to 198	Cc1cc(C2=NN(C)C(=O)C2)c(Cl)cc1Cl
118 to 119	CCc1ccc2c(OCC(=O)O)c(C(C)C)nn2c1
195 to 198	CN1C(=S)Nc2ccncc2S1(=O)=O
150 to 151	O=c1oc(-c2ccsc2)cc(O)c1SCc1ccccc1
139 to 140	Cn1c(C(F)(F)F)ccc(-c2cc([N+](=O)[O-])c(Cl)cc2F)c1=O
279 to 281	C[C@]1(COc2ccc(N3CCC(N4CCN(c5ccc(OC(F)(F)F)cc5)CC4)CC3)cc2)Cn2cc([N+](=O)[O-])nc2O1
216 to 218	CCc1cc(=O)c2c([nH]1)COCC2
133 to 135	O[C@@H](c1c[nH]nc1-c1ccccc1)[C@H](CCN1CCC(O)(c2ccccc2)CC1)c1ccc(Cl)c(Cl)c1 (racemic)
146 to 148	COc1ccc(C=Cc2ccc(C#N)cc2)cc1

melting point [°C]	Structure (SMILES)
130 to 133	CCc1oc2ccc(Cl)cc2c1C(=O)c1ccc(Cl)c(S(N)(=O)=O)c1
120 to 121	CC[C@@H](c1ccccc1)N(Cc1ccc(C(=O)N2CCC[C@@H]2CO)cc1)S(=O)(=O)c1ccc(Cl)cc1
212 to 215	CNC(=O)NC1CCC(=O)c2sccc21 (configuration not stated)
118 to 120	Oc1cc(Cl)c(Br)c(Cl)c1
> 320	CN(C)CCC(=O)Nc1ccc2c(=O)c3ccc(NC(=O)CCN(C)C)cc3[nH]c2c1
226 to 229	CNC1Cc2ccc(C(=O)Cn3cnc4cc(-c5ccc(Cl)cc5)sc4c3=O)cc2C1 (configuration not stated)
115 to 117	CCc1cc(SCCc2cccc3cn(-c4ccc(C(F)(F)F)cc4)nc23)ccc1OCC(=O)O
94.5 to 95.5	CC(=O)c1ccc(-c2ccc(Br)cc2F)cc1
155 to 156	CC(n1cnc2cc(I)ccc2c1=O)C(O)(Cn1cncn1)c1ccc(F)cc1F (configuration not stated)
140	COc1ccccc1[C@H]1CC[C@@H](c2ccccc2)N1C(=O)CNC(=O)Nc1cccc(CC(=O)O)c1 (racemic)
145	CCCNc1c2c(nc3ccccc13)CCCC2=O
> 300	Nc1n[nH]c2c1cnc1c(NC(=O)c3c(Cl)cccc3Cl)cccc12
154 to 156	OCCCOc1nc(N2CCCCC2)c2nc(OCCCO)nc(N3CCCCC3)c2n1
56 to 58	COc1ccc(C(=O)CCCCc2ccccc2)cc1OC
100 to 102	CCc1c(-c2ccncn2)ssc1=S
> 150	O=c1[nH]c(=O)n(C2C=CC(CBr)O2)cc1C=CBr (configuration not stated)
85 to 89	CC1(C)Oc2ccsc2C(N2CCCC2)C1O (configuration not stated)
185	CS(=O)(=O)N1CCN(C(CC2Cc3cc(C(N)=O)ccc3O2)C(=O)NO)CC1 (configuration not stated)
206 to 208	CCOC(=O)c1cc(=O)c(Oc2ccc(O)cc2)co1
96.5 to 98.5	CCOc1ccc2ccc(F)c(F)c2c1F
245 to 247	NC1=CCC(c2nc3c(-c4cnn(-c5ccc(F)cc5)c4)cccn3n2)(C2CCNCC2)C=C1 (configuration not stated)
170 to 172	O=Cc1cc2c(s1)CCCc1cc(=O)n(-c3ccc(Cl)cc3)nc1-2

Structure (SMILES)	melting point [°C]
O=C(NC1CCCCC1)OC1c2nccnc2C(=O)N1c1ccc2ccc(Cl)nc2n1 (configuration not stated)	264
CN1C(=O)[C@H](NC(=O)/C=C/c2cccc(Br)c2)N=C(c2ccccc2)c2ccccc21	221
CCN1c2ncccc2C(=S)N(C)c2cccnc21	157 to 158
O=C1CC2c3cc(F)ccc3CCN2C2CCCCC12 (configuration not stated)	130 to 136
